Reference: PMC6222424, “Hits-to-Lead Optimization of the Natural Compound 2,4,6-Trihydroxy-3-geranyl-acetophenone (tHGA) as a Potent LOX Inhibitor: Synthesis, Structure-Activity Relationship (SAR) Study, and Computational Assignment” (Molecules : A Journal of Synthetic Chemistry and Natural …, 2018)
Where two headings read alike, the source gives them in different places.

How the values were obtained:
[1] = tested on: allergic airway inflammation; parameters: method as in PMID 22266348; settings: acute murine model; compared with Zileuton; cited from earlier work
soybean LOX-1 [2] = molecular target: T1, soybean LOX-1 (Glycine max, UniProt P08170); parameters: purchased; method as in PMID 25100256; settings: data published in previous work, read-out: IC50 Value (μM) Mean ± SEM, cited from earlier work
T1 sequence (P08170 1-839): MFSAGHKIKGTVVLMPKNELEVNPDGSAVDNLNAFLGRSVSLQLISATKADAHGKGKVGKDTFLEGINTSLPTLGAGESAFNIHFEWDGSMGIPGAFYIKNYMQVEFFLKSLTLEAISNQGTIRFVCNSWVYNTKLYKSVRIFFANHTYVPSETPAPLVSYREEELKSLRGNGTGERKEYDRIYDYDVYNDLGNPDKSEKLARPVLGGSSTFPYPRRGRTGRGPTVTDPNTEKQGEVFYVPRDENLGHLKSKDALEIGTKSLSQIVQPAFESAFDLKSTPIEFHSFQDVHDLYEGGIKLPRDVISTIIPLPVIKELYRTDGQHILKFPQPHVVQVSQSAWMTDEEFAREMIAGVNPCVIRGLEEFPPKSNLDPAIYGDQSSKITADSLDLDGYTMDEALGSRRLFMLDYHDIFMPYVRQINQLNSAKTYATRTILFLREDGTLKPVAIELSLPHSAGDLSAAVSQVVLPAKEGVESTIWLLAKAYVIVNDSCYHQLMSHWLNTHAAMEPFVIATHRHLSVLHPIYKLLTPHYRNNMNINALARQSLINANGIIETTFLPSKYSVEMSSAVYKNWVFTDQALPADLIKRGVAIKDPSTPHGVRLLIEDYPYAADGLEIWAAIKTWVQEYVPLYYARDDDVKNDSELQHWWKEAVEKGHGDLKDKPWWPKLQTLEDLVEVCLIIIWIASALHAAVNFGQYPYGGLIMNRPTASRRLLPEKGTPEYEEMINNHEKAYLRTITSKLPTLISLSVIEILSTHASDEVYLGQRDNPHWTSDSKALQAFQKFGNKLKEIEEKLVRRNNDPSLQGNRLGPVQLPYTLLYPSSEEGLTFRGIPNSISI

soybean LOX-1 [3] = molecular target: T1, soybean LOX-1; assay: Enzyme kinetics study (Michaelis–Menten, Lineweaver–Burk); assay type: biochemical; parameters: purchased; settings: for type of inhibition: Lineweaver–Burk plot; for Ki: from slope of Lineweaver–Burk plot vs inhibitor concentration, read-out: Ki (inhibitor constant)
Protocol: Since compounds 3e and tHGA (3a) are competitive inhibitors, there were no changes in maximal velocity.
Kinetics study: Enzyme kinetics was performed similar to the above inhibition assay with slight modification. […] About 10 μL each of 4 linoleic acid substrate concentrations (0.2, 0.3, 0.4, and 0.5 mM) was added to initiate the enzymatic conversion. End product of the reaction was measured at 234 nm over a period of 10 min, with readings taken every 30 s. The type of inhibition (competitive, uncompetitive, noncompetitive) was determined by nonlinear regression Michaelis–Menten enzyme kinetics and the corresponding Lineweaver–Burk plots using 3 concentrations of each inhibitor: 0, 1.57, and 3.13 μg/mL. All experiments were performed in triplicate and the average values and standard errors were plotted. The Km and Vmax values were calculated from the nonlinear regression fitting curve of GraphPad Prism 5.

soybean LOX-1 [4] = molecular target: T1, soybean LOX-1; assay: In vitro soybean 15-lipoxygenase (LOX) inhibition assay; settings: for inhibition at 100 µg/mL: read-out: % Inhibition (100 μg/mL); for solubility of the compound in the 15-LOX assay: assay could not be carried out
Protocol: Briefly, sodium phosphate buffer (160 μL, 100 mM, pH 8.0), test sample (10 μL), and soybean 15-LOX (1.13.11.12) type I-B solution (20 μL, 320 U/well) were mixed and incubated at room temperature for 15 min. The substrate linoleic acid (10 μL, 0.6 mM) solution was added to initiate the reaction. End product from the enzymatic conversion was measured at absorbance of 234 nm over a period of 6 min and the assay was performed in triplicate. Dimethyl sulfoxide (DMSO) was used as a solvent to dissolve test samples and reference standard. […] IC50 values were calculated by the nonlinear regression fitting curve of GraphPad Prism 5. The percentage of inhibition can be calculated by the following formula [10, 11]: Inhibitory% = ODcontrol−ODsample/ODcontrol

| Structure (SMILES) | IC50 (soybean LOX-1 [4]) | inhibition at 100 µg/mL (soybean LOX-1 [4]) | melting point | other results |
| --- | --- | --- | --- | --- |
| CC(=O)c1c(O)cc(O)c(C/C=C(\C)CCC=C(C)C)c1O [Compound 3a, 2,4,6-Trihydroxy-3-geranylacetophenone] |  |  |  | prevention of allergic airway inflammation [1]: as effective as Zileuton; IC50 (soybean LOX-1 [2]; listed as 3a (tHGA)): 23.6 ± 1.7 µM; type of inhibition (soybean LOX-1 [3]): competitive; Ki (soybean LOX-1 [3]): 41.1 µM |
| CC(C)=CCC/C(C)=C/Cc1c(O)cc(O)c(C(=O)C(C)C)c1O [Compound 3b] |  |  |  | IC50 (soybean LOX-1 [2]): 27.6 ± 3.6 µM |
| CCC(=O)c1c(O)cc(O)c(C/C=C(\C)CCC=C(C)C)c1O [Compound 3c, (E)-1-(3-(3,7-dimethylocta-2,6-dienyl)-2,4,6-trihydroxyphenyl)propan-1-one] |  |  |  | IC50 (soybean LOX-1 [2]): 12.3 ± 0.6 µM |
| CCCC(=O)c1c(O)cc(O)c(C/C=C(\C)CCC=C(C)C)c1O [Compound 3d, (E)-1-(3-(3,7-dimethylocta-2,6-dienyl)-2,4,6-trihydroxyphenyl)butan-1-one] | 15.3 ± 0.5 µM | 90.7 ± 5% | 116 to 118 °C |  |
| CCCCC(=O)c1c(O)cc(O)c(C/C=C(\C)CCC=C(C)C)c1O [Compound 3e, (E)-1-(3-(3,7-dimethylocta-2,6-dienyl)-2,4,6-trihydroxyphenyl)pentan-1-one] |  |  |  | fold less active than the standard drug NDGA (soybean LOX-1 [4]; IC50 compared with NDGA): 100 fold; IC50 (soybean LOX-1 [2]): 10.3 µM; type of inhibition (soybean LOX-1 [3]): competitive; Ki (soybean LOX-1 [3]): 36.1 µM |
| CC(C)=CCC/C(C)=C/Cc1c(O)cc(O)c(C(=O)C2CCCCC2)c1O [Compound 3f] |  |  |  | IC50 (soybean LOX-1 [2]): 26.3 ± 1.3 µM |
| CC(=O)c1c(O)cc(O)c(CC=C(C)C)c1O [Compound 4a, 1-(2,4,6-trihydroxy-3-(3-methylbut-2-enyl)phenyl)ethanone] | 72.1 ± 1.2 µM | 94.8 ± 5.2% |  |  |
| CC(C)=CCc1c(O)cc(O)c(C(=O)C(C)C)c1O [Compound 4b, 2-methyl-1-(2,4,6-trihydroxy-3-(3-methylbut-2 enyl)phenyl)propan-1-one] | 53.7 ± 0.7 µM | 82.5 ± 7.3% |  |  |
| CCC(=O)c1c(O)cc(O)c(CC=C(C)C)c1O [Compound 4c, 1-(2,4,6-trihydroxy-3-(3-methylbut-2-enyl)phenyl)propan-1-one] | 61 ± 1.1 µM | 78.1 ± 3.9% | 138 to 140 °C |  |
| CCCC(=O)c1c(O)cc(O)c(CC=C(C)C)c1O [Compound 4d, 1-(2,4,6-trihydroxy-3-(3-methylbut-2-enyl)phenyl)butan-1-one] | 39.5 ± 1.2 µM | 86.2 ± 6.9% |  |  |
| CCCCC(=O)c1c(O)cc(O)c(CC=C(C)C)c1O [Compound 4e, 1-(2,4,6-trihydroxy-3-(3-methylbut-2-enyl)phenyl)pentan-1-one] | 35.1 ± 1.3 µM | 79.4 ± 6.7% | 133 to 135 °C |  |
| CC(C)=CCc1c(O)cc(O)c(C(=O)C2CCCCC2)c1O [Compound 4f, Cyclohexyl(2,4,6-trihydroxy-3-(3-methylbut-2-enyl)phenyl)methanone] | 52.6 ± 1 µM | 93.7 ± 3.8% |  |  |
| CC(C)=CCc1c(O)cc(O)c(C(=O)/C=C/c2ccccc2)c1O [Compound 4g, (E)-3-phenyl-1-(2,4,6-trihydroxy-3-(3-methylbut-2-enyl)phenyl)prop-2-en-1-one] | 95.4 ± 4 µM | 95.2 ± 3.2% | 203 to 205 °C |  |
| COc1cc(OC)c(C(C)=O)c(O)c1C/C=C(\C)CCC=C(C)C [Compound 5a, (E)-1-(3-(3,7-dimethylocta-2,6-dienyl)-2-hydroxy-4,6-dimethoxyphenyl)ethanone] |  |  | 72 to 74 °C | solubility of the compound in the 15-LOX assay (soybean LOX-1 [4]): insolubility |
| CCCCC(=O)c1c(OC)cc(OC)c(C/C=C(\C)CCC=C(C)C)c1O [Compound 5e, (E)-1-(3-(3,7-dimethylocta-2,6-dienyl)-2-hydroxy-4,6-dimethoxyphenyl)pentan-1-one] |  |  |  | solubility of the compound in the 15-LOX assay (soybean LOX-1 [4]): insolubility |
| COc1cc(OC)c(C(C)=O)c(O)c1CC=C(C)C [Compound 6a, 1-(2-hydroxy-4,6-dimethoxy-3-(3-methylbut-2-enyl)phenyl)ethanone] |  |  | 97 to 99 °C | solubility of the compound in the 15-LOX assay (soybean LOX-1 [4]): insolubility |
| CCCCC(=O)c1c(OC)cc(OC)c(CC=C(C)C)c1O [Compound 6e, 1-(2-hydroxy-4,6-dimethoxy-3-(3-methylbut-2-enyl)phenyl)pentan-1-one] |  |  | 84 to 86 °C | solubility of the compound in the 15-LOX assay (soybean LOX-1 [4]): insolubility |
